This is an account of results in ChEMBL document CHEMBL1133407, “Ring constrained analogues of beta-alanine-containing GPIIb/IIIa receptor antagonists” (Bioorg Med Chem Lett, 2000).

Structures are written as SMILES. pIC50: −log10 of the molar value.

In assay [1] the target is T1, Integrin alpha-IIb/beta-3 (Homo sapiens, UniProt P05106+P08514). Briefly: Inhibition of Platelet glycoprotein IIb/Platelet glycoprotein IIIa binding in unactivated human platelets.
Target sequence in this assay (P05106 27-788 limits assumed): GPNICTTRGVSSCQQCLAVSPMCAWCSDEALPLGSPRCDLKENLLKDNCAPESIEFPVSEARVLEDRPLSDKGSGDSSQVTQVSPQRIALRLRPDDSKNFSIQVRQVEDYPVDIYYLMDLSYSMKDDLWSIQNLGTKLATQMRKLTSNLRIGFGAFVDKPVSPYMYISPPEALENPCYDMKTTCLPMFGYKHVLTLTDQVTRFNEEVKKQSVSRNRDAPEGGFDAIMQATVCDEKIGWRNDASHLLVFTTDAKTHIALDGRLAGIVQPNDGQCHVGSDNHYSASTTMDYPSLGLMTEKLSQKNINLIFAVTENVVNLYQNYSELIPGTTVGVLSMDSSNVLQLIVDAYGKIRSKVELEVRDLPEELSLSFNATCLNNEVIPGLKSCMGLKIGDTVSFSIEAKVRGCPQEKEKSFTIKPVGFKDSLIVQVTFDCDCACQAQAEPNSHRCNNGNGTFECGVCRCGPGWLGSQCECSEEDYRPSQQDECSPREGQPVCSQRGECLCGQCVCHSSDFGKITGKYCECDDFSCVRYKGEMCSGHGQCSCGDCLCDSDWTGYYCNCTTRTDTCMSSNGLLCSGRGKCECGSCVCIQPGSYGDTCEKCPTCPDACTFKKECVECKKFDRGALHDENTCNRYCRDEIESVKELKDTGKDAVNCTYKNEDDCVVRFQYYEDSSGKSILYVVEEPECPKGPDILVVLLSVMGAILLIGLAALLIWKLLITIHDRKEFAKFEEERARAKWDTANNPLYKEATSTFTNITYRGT
Target sequence in this assay (P08514 32-887 limits assumed): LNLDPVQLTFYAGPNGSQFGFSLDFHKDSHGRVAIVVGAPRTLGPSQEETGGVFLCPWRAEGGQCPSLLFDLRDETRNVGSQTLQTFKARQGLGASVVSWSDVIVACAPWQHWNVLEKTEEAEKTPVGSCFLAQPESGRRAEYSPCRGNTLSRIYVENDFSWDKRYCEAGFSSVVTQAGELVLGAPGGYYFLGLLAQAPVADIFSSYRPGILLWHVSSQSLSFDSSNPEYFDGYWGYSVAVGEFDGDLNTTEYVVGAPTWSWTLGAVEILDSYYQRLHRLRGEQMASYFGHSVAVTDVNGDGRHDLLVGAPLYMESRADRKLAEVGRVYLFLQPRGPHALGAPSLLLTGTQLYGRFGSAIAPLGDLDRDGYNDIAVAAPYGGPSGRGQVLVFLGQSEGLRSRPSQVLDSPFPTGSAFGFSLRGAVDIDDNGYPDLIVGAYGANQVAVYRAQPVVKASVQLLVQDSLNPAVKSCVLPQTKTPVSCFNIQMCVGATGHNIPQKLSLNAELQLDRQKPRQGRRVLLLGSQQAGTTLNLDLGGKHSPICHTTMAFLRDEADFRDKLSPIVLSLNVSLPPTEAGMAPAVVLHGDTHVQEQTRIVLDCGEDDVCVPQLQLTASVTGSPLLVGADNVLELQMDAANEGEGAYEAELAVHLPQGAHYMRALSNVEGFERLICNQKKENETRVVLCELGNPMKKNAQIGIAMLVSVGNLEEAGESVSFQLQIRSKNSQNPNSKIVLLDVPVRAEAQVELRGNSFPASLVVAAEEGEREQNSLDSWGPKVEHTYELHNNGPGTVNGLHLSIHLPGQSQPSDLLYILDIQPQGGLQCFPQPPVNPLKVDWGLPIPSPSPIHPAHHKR
Target sequence in this assay (P08514 891-1039 limits assumed): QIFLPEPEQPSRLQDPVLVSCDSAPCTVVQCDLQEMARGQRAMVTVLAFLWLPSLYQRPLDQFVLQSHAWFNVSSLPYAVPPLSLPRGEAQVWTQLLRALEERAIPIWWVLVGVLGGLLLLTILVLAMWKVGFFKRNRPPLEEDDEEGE
The target of assay [2] is T1, Integrin alpha-IIb/beta-3. Briefly: Inhibition of GPIIb/IIIa binding in activated human platelets. Format: functional.
Target sequence in this assay (P05106 27-788 limits assumed): as the sequence (P05106 27-788 limits assumed) above
Target sequence in this assay (P08514 32-887 limits assumed): as the sequence (P08514 32-887 limits assumed) above
Target sequence in this assay (P08514 891-1039 limits assumed): as the sequence (P08514 891-1039 limits assumed) above
The target in assay [3] is T1, Integrin alpha-IIb/beta-3. Briefly: Relative binding to unactivated/activated platelets.

For `N=C(N)c1ccc(C2=NOC(CC(=O)NCCC(=O)O)C2)cc1` (stereo not given), the pIC50 was 6.95 in assay [1] and 8.40 in assay [2]. For the same compound, the Ratio in assay [3] is 28.

As for `N=C(N)c1ccc(C2=NOC(CC(=O)N3CCCCC3CC(=O)O)C2)cc1` (single isomer, unassigned; isomer B) [listing 1 of 2 here], the values for the pIC50 in assay [1] and in assay [2] were 5.24 and 6.52, respectively.

On to `N=C(N)c1ccc(C2=NOC(CC(=O)N3CCCCC3CC(=O)O)C2)cc1` (single isomer, unassigned; isomer B) [listing 2 of 2 here], for which the Ratio in assay [3] was 19.

In the case of `N=C(N)c1ccc(C2=NOC(CC(=O)N3CCCCC3CC(=O)O)C2)cc1` (single isomer, unassigned; isomer C) [listing 1 of 2 here], the pIC50 is 7.19 in assay [1] and 8.70 in assay [2].

Take `N=C(N)c1ccc(C2=NOC(CC(=O)N3CCCCC3CC(=O)O)C2)cc1` (single isomer, unassigned; isomer C) [listing 2 of 2 here]: in assay [3], the Ratio came to 32.

With `N=C(N)c1ccc(C2=NOC(CC(=O)N3CCCCC3CC(=O)O)C2)cc1` (single isomer, unassigned; isomer D), the pIC50 in assay [1] is less than 5.30.
